Reference: ChEMBL document CHEMBL1201861, “Genomics of Drug Sensitity in Cancer screening data, Wellcome Trust Sanger Institute”

The molecules below were run on MPP-89 (assay: cells). Details: Homo sapiens, MPP-89.
Assay type: functional, cell-based, Homo sapiens
Description: SANGER: Inhibition of human MPP-89 cell growth in a cell viability assay.

Compound	IC50 [µM]
CC(C)CCN1c2nc(Nc3cc(F)c(O)c(F)c3)ncc2N(C)C(=O)C1C (configuration not stated)	> 5

Each molecule was assayed on ES4 (assay: cells). Details: Homo sapiens, ES4.
Assay type: functional, cell-based, Homo sapiens
Description: SANGER: Inhibition of human ES4 cell growth in a cell viability assay.

Compound	IC50 [µM]
CC(C)CCN1c2nc(Nc3cc(F)c(O)c(F)c3)ncc2N(C)C(=O)C1C (configuration not stated)	1.85

Each molecule was assayed on NB12 (assay: cells). Details: Homo sapiens, NB12.
Assay type: functional, cell-based, Homo sapiens
Description: SANGER: Inhibition of human NB12 cell growth in a cell viability assay.

Compound	IC50 [µM]
CC(C)CCN1c2nc(Nc3cc(F)c(O)c(F)c3)ncc2N(C)C(=O)C1C (configuration not stated)	> 5

The molecules below were run on NCI-H1650 (assay: cells). Details: Homo sapiens, NCI-H1650.
Assay type: functional, cell-based, Homo sapiens
Description: SANGER: Inhibition of human NCI-H1650 cell growth in a cell viability assay.

Compound	IC50 [µM]
CC(C)CCN1c2nc(Nc3cc(F)c(O)c(F)c3)ncc2N(C)C(=O)C1C (configuration not stated)	> 5

The molecules below were run on A101D (assay: cells). Details: Homo sapiens, A101D.
Assay type: functional, cell-based, Homo sapiens
Description: SANGER: Inhibition of human A101D cell growth in a cell viability assay.

Compound	IC50 [µM]
CC(C)CCN1c2nc(Nc3cc(F)c(O)c(F)c3)ncc2N(C)C(=O)C1C (configuration not stated)	4.97

What follows are molecules tested on ES6 (assay: cells). Details: Homo sapiens, ES6.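 Also: growth inhibition of human ES6 cells, read out with a cell viability assay.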
Assay type: functional, cell-based, Homo sapiens
Description: SANGER: Inhibition of human ES6 cell growth in a cell viability assay.

Compound	IC50 [µM]
CC(C)CCN1c2nc(Nc3cc(F)c(O)c(F)c3)ncc2N(C)C(=O)C1C (configuration not stated)	> 5

The molecules below were run on NCI-H82 (assay: cells). Details: Homo sapiens, NCI-H82.
Assay type: functional, cell-based, Homo sapiens
Description: SANGER: Inhibition of human NCI-H82 cell growth in a cell viability assay.

Compound	IC50 [µM]
CC(C)CCN1c2nc(Nc3cc(F)c(O)c(F)c3)ncc2N(C)C(=O)C1C (configuration not stated)	> 5

What follows are molecules tested on NCI-H747 (assay: cells). Details: Homo sapiens, NCI-H747.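 Also: growth inhibition of human NCI-H747 cells, read out by a cell viability assay.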
Assay type: functional, cell-based, Homo sapiens
Description: SANGER: Inhibition of human NCI-H747 cell growth in a cell viability assay.

Compound	IC50 [µM]
CC(C)CCN1c2nc(Nc3cc(F)c(O)c(F)c3)ncc2N(C)C(=O)C1C (configuration not stated)	> 5

These molecules were tested on CGTH-W-1 (assay: cells). Details: Homo sapiens, CGTH-W-1.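 Also: growth inhibition of human CGTH-W-1 cells measured by cell viability assay.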
Assay type: functional, cell-based, Homo sapiens
Description: SANGER: Inhibition of human CGTH-W-1 cell growth in a cell viability assay.

Compound	IC50 [µM]
CC(C)CCN1c2nc(Nc3cc(F)c(O)c(F)c3)ncc2N(C)C(=O)C1C (configuration not stated)	3.94

The molecules below were run on OVCAR-4 (assay: cells). Details: Homo sapiens, OVCAR-4.
Assay type: functional, cell-based, Homo sapiens
Description: SANGER: Inhibition of human OVCAR-4 cell growth in a cell viability assay.

Compound	IC50 [µM]
CC(C)CCN1c2nc(Nc3cc(F)c(O)c(F)c3)ncc2N(C)C(=O)C1C (configuration not stated)	> 5

What follows are molecules tested on MSTO-211H (assay: cells). Details: Homo sapiens, MSTO-211H.
Assay type: functional, cell-based, Homo sapiens
Description: SANGER: Inhibition of human MSTO-211H cell growth in a cell viability assay.

Compound	IC50 [µM]
CC(C)CCN1c2nc(Nc3cc(F)c(O)c(F)c3)ncc2N(C)C(=O)C1C (configuration not stated)	> 5

The molecules below were run on SF-268 (assay: cells). Details: Homo sapiens, SF-268.
Assay type: functional, cell-based, Homo sapiens
Description: SANGER: Inhibition of human SF268 cell growth in a cell viability assay.

Compound	IC50 [µM]
CC(C)CCN1c2nc(Nc3cc(F)c(O)c(F)c3)ncc2N(C)C(=O)C1C (configuration not stated)	2.87

These molecules were tested on OCUB-M (assay: cells). Details: Homo sapiens, OCUB-M.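 Also: growth inhibition of the cancer cell line, read out through a cell viability assay.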
Assay type: functional, cell-based, Homo sapiens
Description: SANGER: Inhibition of human OCUB-M cell growth in a cell viability assay.

Compound	IC50 [µM]
CC(C)CCN1c2nc(Nc3cc(F)c(O)c(F)c3)ncc2N(C)C(=O)C1C (configuration not stated)	> 5

The molecules below were run on A3-KAW (assay: cells). Details: Homo sapiens, A3-KAW.
Assay type: functional, cell-based, Homo sapiens
Description: SANGER: Inhibition of human A3-KAW cell growth in a cell viability assay.

Compound	IC50 [µM]
CC(C)CCN1c2nc(Nc3cc(F)c(O)c(F)c3)ncc2N(C)C(=O)C1C (configuration not stated)	1.63

The molecules below were run on HAL-01 (assay: cells). Details: Homo sapiens, HAL-01.
Assay type: functional, cell-based, Homo sapiens
Description: SANGER: Inhibition of human HAL-01 cell growth in a cell viability assay.

Compound	IC50 [µM]
CC(C)CCN1c2nc(Nc3cc(F)c(O)c(F)c3)ncc2N(C)C(=O)C1C (configuration not stated)	> 5

What follows are molecules tested on GR-ST (assay: cells). Details: Homo sapiens, GR-ST.
Assay type: functional, cell-based, Homo sapiens
Description: SANGER: Inhibition of human GR-ST cell growth in a cell viability assay.

Compound	IC50 [µM]
CC(C)CCN1c2nc(Nc3cc(F)c(O)c(F)c3)ncc2N(C)C(=O)C1C (configuration not stated)	> 5

The molecules below were run on GCIY (assay: cells). Details: Homo sapiens, GCIY.
Assay type: functional, cell-based, Homo sapiens
Description: SANGER: Inhibition of human GCIY cell growth in a cell viability assay.

Compound	IC50 [µM]
CC(C)CCN1c2nc(Nc3cc(F)c(O)c(F)c3)ncc2N(C)C(=O)C1C (configuration not stated)	4.71

These molecules were tested on HCC2157 (assay: cells). Details: Homo sapiens, HCC2157.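 Also: growth inhibition of the cancer cell line, read out as cell viability.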
Assay type: functional, cell-based, Homo sapiens
Description: SANGER: Inhibition of human HCC2157 cell growth in a cell viability assay.

Compound	IC50 [µM]
CC(C)CCN1c2nc(Nc3cc(F)c(O)c(F)c3)ncc2N(C)C(=O)C1C (configuration not stated)	> 5

What follows are molecules tested on L-363 (assay: cells). Details: Homo sapiens, L-363.
Assay type: functional, cell-based, Homo sapiens
Description: SANGER: Inhibition of human L-363 cell growth in a cell viability assay.

Compound	IC50 [µM]
CC(C)CCN1c2nc(Nc3cc(F)c(O)c(F)c3)ncc2N(C)C(=O)C1C (configuration not stated)	> 5

Each molecule was assayed on TGW (assay: cells). Details: Homo sapiens, TGW.
Assay type: functional, cell-based, Homo sapiens
Description: SANGER: Inhibition of human TGW cell growth in a cell viability assay.

Compound	IC50 [µM]
CC(C)CCN1c2nc(Nc3cc(F)c(O)c(F)c3)ncc2N(C)C(=O)C1C (configuration not stated)	1.05

These molecules were tested on MFH-ino (assay: cells). Details: Homo sapiens, MFH-ino.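 Also: growth inhibition of human MFH-ino cells, read out by a cell viability assay.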
Assay type: functional, cell-based, Homo sapiens
Description: SANGER: Inhibition of human MFH-ino cell growth in a cell viability assay.

Compound	IC50 [µM]
CC(C)CCN1c2nc(Nc3cc(F)c(O)c(F)c3)ncc2N(C)C(=O)C1C (configuration not stated)	> 5

What follows are molecules tested on NOMO-1 (assay: cells). Details: Homo sapiens, NOMO-1.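 Also: growth inhibition of human NOMO-1 cells measured by a cell viability assay.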
Assay type: functional, cell-based, Homo sapiens
Description: SANGER: Inhibition of human NOMO-1 cell growth in a cell viability assay.

Compound	IC50 [µM]
CC(C)CCN1c2nc(Nc3cc(F)c(O)c(F)c3)ncc2N(C)C(=O)C1C (configuration not stated)	> 5

The molecules below were run on A704 (assay: cells). Details: Homo sapiens, A704.
Assay type: functional, cell-based, Homo sapiens
Description: SANGER: Inhibition of human A704 cell growth in a cell viability assay.

Compound	IC50 [µM]
CC(C)CCN1c2nc(Nc3cc(F)c(O)c(F)c3)ncc2N(C)C(=O)C1C (configuration not stated)	> 5

These molecules were tested on SK-MEL-1 (assay: cells). Details: Homo sapiens, SK-MEL-1.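 Also: growth inhibition of human SK-MEL-1 cells, read out by a cell viability assay.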
Assay type: functional, cell-based, Homo sapiens
Description: SANGER: Inhibition of human SK-MEL-1 cell growth in a cell viability assay.

Compound	IC50 [µM]
CC(C)CCN1c2nc(Nc3cc(F)c(O)c(F)c3)ncc2N(C)C(=O)C1C (configuration not stated)	> 5

Each molecule was assayed on SK-N-FI (assay: cells). Details: Homo sapiens, SK-N-FI.
Assay type: functional, cell-based, Homo sapiens
Description: SANGER: Inhibition of human SK-N-FI cell growth in a cell viability assay.

Compound	IC50 [µM]
CC(C)CCN1c2nc(Nc3cc(F)c(O)c(F)c3)ncc2N(C)C(=O)C1C (configuration not stated)	> 5

What follows are molecules tested on COLO-824 (assay: cells). Details: Homo sapiens, COLO-824.
Assay type: functional, cell-based, Homo sapiens
Description: SANGER: Inhibition of human COLO-824 cell growth in a cell viability assay.

Compound	IC50 [µM]
CC(C)CCN1c2nc(Nc3cc(F)c(O)c(F)c3)ncc2N(C)C(=O)C1C (configuration not stated)	4.9

What follows are molecules tested on NEC8 (assay: cells). Details: Homo sapiens, NEC8.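 Also: growth inhibition of human NEC8 cells, read out by a cell viability assay.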
Assay type: functional, cell-based, Homo sapiens
Description: SANGER: Inhibition of human NEC8 cell growth in a cell viability assay.

Compound	IC50 [µM]
CC(C)CCN1c2nc(Nc3cc(F)c(O)c(F)c3)ncc2N(C)C(=O)C1C (configuration not stated)	1.7

The molecules below were run on SW 962 (assay: cells). Details: Homo sapiens, SW 962.
Assay type: functional, cell-based, Homo sapiens
Description: SANGER: Inhibition of human SW962 cell growth in a cell viability assay.

Compound	IC50 [µM]
CC(C)CCN1c2nc(Nc3cc(F)c(O)c(F)c3)ncc2N(C)C(=O)C1C (configuration not stated)	> 5

These molecules were tested on IA-LM (assay: cells). Details: Homo sapiens, IA-LM.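 Also: cell viability assay measuring growth inhibition of human IA-LM cells.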
Assay type: functional, cell-based, Homo sapiens
Description: SANGER: Inhibition of human IA-LM cell growth in a cell viability assay.

Compound	IC50 [µM]
CC(C)CCN1c2nc(Nc3cc(F)c(O)c(F)c3)ncc2N(C)C(=O)C1C (configuration not stated)	> 5

Each molecule was assayed on BB65-RCC (assay: cells). Details: Homo sapiens, BB65-RCC.
Assay type: functional, cell-based, Homo sapiens
Description: SANGER: Inhibition of human BB65-RCC cell growth in a cell viability assay.

Compound	IC50 [µM]
CC(C)CCN1c2nc(Nc3cc(F)c(O)c(F)c3)ncc2N(C)C(=O)C1C (configuration not stated)	3.45

These molecules were tested on NCI-H720 (assay: cells). Details: Homo sapiens, NCI-H720.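 Also: growth inhibition of human NCI-H720 cells determined by a cell viability assay.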
Assay type: functional, cell-based, Homo sapiens
Description: SANGER: Inhibition of human NCI-H720 cell growth in a cell viability assay.

Compound	IC50 [µM]
CC(C)CCN1c2nc(Nc3cc(F)c(O)c(F)c3)ncc2N(C)C(=O)C1C (configuration not stated)	0.172

The molecules below were run on MOLT-16 (assay: cells). Details: Homo sapiens, MOLT-16.
Assay type: functional, cell-based, Homo sapiens
Description: SANGER: Inhibition of human MOLT-16 cell growth in a cell viability assay.

Compound	IC50 [µM]
CC(C)CCN1c2nc(Nc3cc(F)c(O)c(F)c3)ncc2N(C)C(=O)C1C (configuration not stated)	> 5

The molecules below were run on GOTO (assay: cells). Details: Homo sapiens, GOTO.
Assay type: functional, cell-based, Homo sapiens
Description: SANGER: Inhibition of human GOTO cell growth in a cell viability assay.

Compound	IC50 [µM]
CC(C)CCN1c2nc(Nc3cc(F)c(O)c(F)c3)ncc2N(C)C(=O)C1C (configuration not stated)	3.28

What follows are molecules tested on BE-13 (assay: cells). Details: Homo sapiens, BE-13.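 Also: growth inhibition of human BE-13 cells, measured with a cell viability assay.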
Assay type: functional, cell-based, Homo sapiens
Description: SANGER: Inhibition of human BE-13 cell growth in a cell viability assay.

Compound	IC50 [µM]
CC(C)CCN1c2nc(Nc3cc(F)c(O)c(F)c3)ncc2N(C)C(=O)C1C (configuration not stated)	1.59

What follows are molecules tested on D283 Med (assay: cells). Details: Homo sapiens, D283 Med.
Assay type: functional, cell-based, Homo sapiens
Description: SANGER: Inhibition of human D-283MED cell growth in a cell viability assay.

Compound	IC50 [µM]
CC(C)CCN1c2nc(Nc3cc(F)c(O)c(F)c3)ncc2N(C)C(=O)C1C (configuration not stated)	2.24

These molecules were tested on J-RT3-T3-5 (assay: cells). Details: Homo sapiens, J-RT3-T3-5.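 Also: cell viability assay measuring growth inhibition of human J-RT3-T3-5 cells.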
Assay type: functional, cell-based, Homo sapiens
Description: SANGER: Inhibition of human J-RT3-T3-5 cell growth in a cell viability assay.

Compound	IC50 [µM]
CC(C)CCN1c2nc(Nc3cc(F)c(O)c(F)c3)ncc2N(C)C(=O)C1C (configuration not stated)	> 5

Each molecule was assayed on KP-N-YS (assay: cells). Details: Homo sapiens, KP-N-YS.
Assay type: functional, cell-based, Homo sapiens
Description: SANGER: Inhibition of human KP-N-YS cell growth in a cell viability assay.

Compound	IC50 [µM]
CC(C)CCN1c2nc(Nc3cc(F)c(O)c(F)c3)ncc2N(C)C(=O)C1C (configuration not stated)	0.682

What follows are molecules tested on L-428 (assay: cells). Details: Homo sapiens, L-428.
Assay type: functional, cell-based, Homo sapiens
Description: SANGER: Inhibition of human L-428 cell growth in a cell viability assay.

Compound	IC50 [µM]
CC(C)CCN1c2nc(Nc3cc(F)c(O)c(F)c3)ncc2N(C)C(=O)C1C (configuration not stated)	> 5

These molecules were tested on LS-1034 (assay: cells). Details: Homo sapiens, LS-1034.
Assay type: functional, cell-based, Homo sapiens
Description: SANGER: Inhibition of human LS-1034 cell growth in a cell viability assay.

Compound	IC50 [µM]
CC(C)CCN1c2nc(Nc3cc(F)c(O)c(F)c3)ncc2N(C)C(=O)C1C (configuration not stated)	> 5

What follows are molecules tested on 8-MG-BA (assay: cells). Details: Homo sapiens, 8-MG-BA.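 Also: growth inhibition of 8-MG-BA cells, read out with a cell viability assay.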
Assay type: functional, cell-based, Homo sapiens
Description: SANGER: Inhibition of human 8-MG-BA cell growth in a cell viability assay.

Compound	IC50 [µM]
CC(C)CCN1c2nc(Nc3cc(F)c(O)c(F)c3)ncc2N(C)C(=O)C1C (configuration not stated)	2.23

These molecules were tested on IST-MEL1 (assay: cells). Details: Homo sapiens, IST-MEL1.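 Also: growth inhibition of the cell line, read out with a cell viability assay.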
Assay type: functional, cell-based, Homo sapiens
Description: SANGER: Inhibition of human IST-MEL1 cell growth in a cell viability assay.

Compound	IC50 [µM]
CC(C)CCN1c2nc(Nc3cc(F)c(O)c(F)c3)ncc2N(C)C(=O)C1C (configuration not stated)	> 5

These molecules were tested on NCI-H1299 (assay: cells). Details: Homo sapiens, NCI-H1299.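 Also: growth inhibition of human NCI-H1299 cells, read out by a cell viability assay.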
Assay type: functional, cell-based, Homo sapiens
Description: SANGER: Inhibition of human NCI-H1299 cell growth in a cell viability assay.

Compound	IC50 [µM]
CC(C)CCN1c2nc(Nc3cc(F)c(O)c(F)c3)ncc2N(C)C(=O)C1C (configuration not stated)	2.94

These molecules were tested on BB30-HNC (assay: cells). Details: Homo sapiens, BB30-HNC.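 Also: growth inhibition of the cultured cell line, read out by a cell viability assay.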
Assay type: functional, cell-based, Homo sapiens
Description: SANGER: Inhibition of human BB30-HNC cell growth in a cell viability assay.

Compound	IC50 [µM]
CC(C)CCN1c2nc(Nc3cc(F)c(O)c(F)c3)ncc2N(C)C(=O)C1C (configuration not stated)	> 5

The molecules below were run on NCI-H1395 (assay: cells). Details: Homo sapiens, NCI-H1395.
Assay type: functional, cell-based, Homo sapiens
Description: SANGER: Inhibition of human NCI-H1395 cell growth in a cell viability assay.

Compound	IC50 [µM]
CC(C)CCN1c2nc(Nc3cc(F)c(O)c(F)c3)ncc2N(C)C(=O)C1C (configuration not stated)	2.47

What follows are molecules tested on TE-11 (assay: cells). Details: Homo sapiens, TE-11.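 Also: growth inhibition of human TE-11 cells, read out by a cell viability assay.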
Assay type: functional, cell-based, Homo sapiens
Description: SANGER: Inhibition of human TE-11 cell growth in a cell viability assay.

Compound	IC50 [µM]
CC(C)CCN1c2nc(Nc3cc(F)c(O)c(F)c3)ncc2N(C)C(=O)C1C (configuration not stated)	> 5

These molecules were tested on NB6 (assay: cells). Details: Homo sapiens, NB6.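 Also: growth inhibition of NB6 cells, read out by a cell viability assay.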
Assay type: functional, cell-based, Homo sapiens
Description: SANGER: Inhibition of human NB6 cell growth in a cell viability assay.

Compound	IC50 [µM]
CC(C)CCN1c2nc(Nc3cc(F)c(O)c(F)c3)ncc2N(C)C(=O)C1C (configuration not stated)	2.46

Each molecule was assayed on TE-5 (assay: cells). Details: Homo sapiens, TE-5.
Assay type: functional, cell-based, Homo sapiens
Description: SANGER: Inhibition of human TE-5 cell growth in a cell viability assay.

Compound	IC50 [µM]
CC(C)CCN1c2nc(Nc3cc(F)c(O)c(F)c3)ncc2N(C)C(=O)C1C (configuration not stated)	> 5
